Data: US8980823B2, “Formulations of Factor VIIa inhibitors and utility” (priority 2012, dated 2015)
Entries after “also recorded” stand apart in the source; their conditions may differ.

Tested on: Laser-induced CNV
Test: Laser-induced Choroidal Neovascularization (CNV) model
Assay type: in vivo, brown Norway rats
Conditions: single i-v injection on D0, evaluated D10; r-TFPI 0.2 ug; VIIa-i (Compound A-NO NP) 5.08 ug
Experimental: For Choroidal Neovascularization (CNV) induction in rats, brown Norway rats were anesthetized and pupils dilated. Argon red laser photocoagulation (50-um spot size, 0.05 sec duration) was used to generate 4 laser spots for each eye surrounding the optic nerve. A bubble forms at the laser spot indicating rupture of Bruch's membrane. The laser spots were evaluated for the presence of CNV on day 10 after laser treatment using confocal microscopy. Administration of test compounds: Immediately after CNV induction, test compounds were given once by intravitreal injection, i-v (VIIa-i versus r-TFPI). For characterization of efficacy in preventing laser-induced CNV in the eyes of rats, the incidence of CNV-positive or CNV-negative spots was determined by confocal microscopy. Rats were perfused with a FITC-dextran solution just prior to sacrifice. After the eyes were excised and choroidal flat mounts prepared, the mounts were stained with a mAb against mouse or rat elastin and then with CY3-conjugated secondary antibody. The prominent neovascular growth stains green whereas the underlying elastin in the Bruch's membrane stains red within the laser spot. The inhibition of new vessel growth is indicated by the absence of vessels with a green stain, and the size of the CNV is measured using Image Pro plus Software. […] Animals were sacrificed on D10, and CNV evaluated as described in methods.

Substance: r-TFPI: recombinant tissue factor pathway inhibitor
- inhibition of laser-induced CNV: highly effective in inhibiting laser-induced CNV; also recorded: significant reduction in neovascular growth
